Tests used:
Assay in all cases: relative viability (nuclei count vs DMSO), 5 days (fraction); higher = more cells survive
Vemurafenib + AZD7762 = compound: CCCS(=O)(=O)Nc1ccc(F)c(C(=O)c2c[nH]c3ncc(-c4ccc(Cl)cc4)cc23)c1F [Vemurafenib] + NC(=O)Nc1cc(-c2cccc(F)c2)sc1C(=O)N[C@H]1CCCNC1 [AZD7762] (partner 0.2 µM)
Method in brief: (§1)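 Each reported value is a median over duplicate plates. It expresses relative viability: treated-well nuclei count divided by vehicle-well nuclei count. Lung cancer cell lines in 1536-well plates were dosed by pin tool a day after seeding, alone with one drug or with a fixed anchor-drug dose plus five library-drug doses (not always all listed) in √10 steps, and nuclei were counted after 5 days.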

OSI-027 + Vorinostat = compound: COc1cccc2cc(-c3nc([C@H]4CC[C@H](C(=O)O)CC4)n4ncnc(N)c34)[nH]c12 [OSI-027] + O=C(CCCCCCC(=O)Nc1ccccc1)NO [Vorinostat] (partner 1 µM)
Method in brief: as §1

Vemurafenib + Bortezomib = compound: CCCS(=O)(=O)Nc1ccc(F)c(C(=O)c2c[nH]c3ncc(-c4ccc(Cl)cc4)cc23)c1F [Vemurafenib] + CC(C)C[C@H](NC(=O)[C@H](Cc1ccccc1)NC(=O)c1cnccn1)B(O)O [Bortezomib] (partner 0.002 µM)
Method in brief: as §1

Vemurafenib + Decitabine = compound: CCCS(=O)(=O)Nc1ccc(F)c(C(=O)c2c[nH]c3ncc(-c4ccc(Cl)cc4)cc23)c1F [Vemurafenib] + Nc1ncn([C@H]2C[C@H](O)[C@@H](CO)O2)c(=O)n1 [Decitabine] (partner 2 µM)
Method in brief: as §1

| Cell Line | relative viability (Vemurafenib + AZD7762; first compound 0.03162 µM) | relative viability (Vemurafenib + AZD7762; first compound 0.1 µM) | relative viability (Vemurafenib + AZD7762; first compound 0.3162 µM) | relative viability (Vemurafenib + AZD7762; first compound 1 µM) | relative viability (OSI-027 + Vorinostat; first compound 0.01 µM) | relative viability (OSI-027 + Vorinostat; first compound 0.03162 µM) | relative viability (OSI-027 + Vorinostat; first compound 0.1 µM) | relative viability (OSI-027 + Vorinostat; first compound 0.3162 µM) | relative viability (OSI-027 + Vorinostat; first compound 1 µM) | relative viability (Vemurafenib + Bortezomib; first compound 0.03162 µM) | relative viability (Vemurafenib + Bortezomib; first compound 0.1 µM) | relative viability (Vemurafenib + Bortezomib; first compound 0.3162 µM) | relative viability (Vemurafenib + Bortezomib; first compound 1 µM) | relative viability (Vemurafenib + Decitabine; first compound 0.03162 µM) | relative viability (Vemurafenib + Decitabine; first compound 0.1 µM) | relative viability (Vemurafenib + Decitabine; first compound 0.3162 µM) | relative viability (Vemurafenib + Decitabine; first compound 1 µM) |
| --- | --- | --- | --- | --- | --- | --- | --- | --- | --- | --- | --- | --- | --- | --- | --- | --- | --- |
| NCI-H1975 | 0.689 | 0.697 | 0.396 | 0.654 | 0.722 | 0.647 | 0.672 | 0.657 | 0.496 | 0.361 | 0.313 | 0.24 | 0.385 | 0.419 | 0.418 | 0.345 | 0.32 |
| NCI-H1993 | 0.657 | – | 0.804 | 0.966 | 0.86 | 0.967 | 0.717 | 0.474 | 0.449 | 1.02 | – | 1.25 | 1.03 | 0.513 | – | 0.651 | 0.713 |
| NCI-H2085 | 0.893 | 0.804 | 0.928 | 0.997 | 0.714 | 0.73 | 0.76 | 0.648 | 0.549 | 1.05 | 0.91 | 0.914 | 0.847 | 0.495 | 0.529 | 0.536 | 0.597 |
| NCI-H2087 | 1.12 | 1.31 | 1.09 | 1.19 | 0.971 | 0.769 | 0.613 | 0.815 | 0.161 | 0.759 | 0.701 | – | 0.753 | 0.198 | 0.273 | 0.346 | 0.336 |
| NCI-H2126 | 0.971 | 0.997 | 0.99 | 1.1 | 0.703 | 0.682 | 0.692 | 0.627 | 0.586 | 1.07 | 1.07 | 1.09 | 1.14 | 0.559 | 0.542 | 0.599 | 0.552 |
| NCI-H2347 | 0.744 | 0.744 | 0.664 | 0.884 | 0.556 | 0.403 | 0.55 | 0.447 | 0.339 | 0.737 | 0.79 | 0.712 | 1.02 | 0.588 | 0.538 | 0.562 | 0.613 |
| NCI-H2405 | 0.709 | 0.696 | – | 0.721 | 1.04 | 1.02 | 0.899 | 0.831 | 0.549 | 0.925 | 0.995 | – | 0.829 | 0.668 | 0.678 | – | 0.736 |
| NCI-H3122 | 0.988 | 0.895 | 0.922 | 1.09 | 0.991 | 1.09 | 1.06 | 0.93 | 0.732 | 0.989 | 1.01 | 1.04 | 1.07 | 0.429 | 0.485 | 0.481 | 0.504 |
| PC-3 [JPC-3] | – | – | 0.785 | 0.94 | 0.649 | 0.787 | 0.454 | 0.56 | 0.527 | 0.81 | – | 0.804 | 0.887 | – | – | 0.81 | 0.888 |
| PC-14 | 0.272 | – | – | 0.356 | 0.734 | 0.72 | 0.585 | 0.698 | 0.445 | 0.728 | – | 0.88 | 0.777 | 0.223 | – | 0.181 | 0.237 |
| RERF-LC-KJ | 0.874 | 1.01 | 0.663 | 1.08 | 0.647 | 0.685 | 0.595 | 0.529 | 0.426 | 1.04 | 1.06 | 1.06 | 1.19 | 0.639 | 0.678 | 0.632 | 0.716 |

Reference: the supplement of paper PMC10307832
